Tests used:
[1] = Lipophilicity, logD of compound by shake flask method; format: physicochemical; conditions: octanol/water
[2] = Metabolic stability in human hepatocytes assessed as apparent intrinsic clearance measured per molar; format: ADME, cell-based, Hepatocyte
CYP (isoform not stated) = CYP (isoform not stated) (Homo sapiens, UniProt P04798+P05177+P05181+P08684+P10632+P10635+P11509+P11712+P13584+P20813+P20815+P20853+P24462+P24903+P33260+P33261+P51589+P78329+P98187+Q02928+Q08477+Q16678+Q16696+Q5TCH4+Q6VVX0+Q7Z449+Q8TAV3+Q96SQ9+Q9HB55); experiment: Inhibition of CYP (unknown origin) at 3 uM relative to control; format: ADME, protein assay
[3] = biological target: Voltage-gated inwardly rectifying potassium channel KCNH2 (Homo sapiens, UniProt Q12809); experiment: Inhibition of hERG; format: toxicity
Voltage-gated inwardly rectifying potassium channel KCNH2, sequence (Q12809 whole entry): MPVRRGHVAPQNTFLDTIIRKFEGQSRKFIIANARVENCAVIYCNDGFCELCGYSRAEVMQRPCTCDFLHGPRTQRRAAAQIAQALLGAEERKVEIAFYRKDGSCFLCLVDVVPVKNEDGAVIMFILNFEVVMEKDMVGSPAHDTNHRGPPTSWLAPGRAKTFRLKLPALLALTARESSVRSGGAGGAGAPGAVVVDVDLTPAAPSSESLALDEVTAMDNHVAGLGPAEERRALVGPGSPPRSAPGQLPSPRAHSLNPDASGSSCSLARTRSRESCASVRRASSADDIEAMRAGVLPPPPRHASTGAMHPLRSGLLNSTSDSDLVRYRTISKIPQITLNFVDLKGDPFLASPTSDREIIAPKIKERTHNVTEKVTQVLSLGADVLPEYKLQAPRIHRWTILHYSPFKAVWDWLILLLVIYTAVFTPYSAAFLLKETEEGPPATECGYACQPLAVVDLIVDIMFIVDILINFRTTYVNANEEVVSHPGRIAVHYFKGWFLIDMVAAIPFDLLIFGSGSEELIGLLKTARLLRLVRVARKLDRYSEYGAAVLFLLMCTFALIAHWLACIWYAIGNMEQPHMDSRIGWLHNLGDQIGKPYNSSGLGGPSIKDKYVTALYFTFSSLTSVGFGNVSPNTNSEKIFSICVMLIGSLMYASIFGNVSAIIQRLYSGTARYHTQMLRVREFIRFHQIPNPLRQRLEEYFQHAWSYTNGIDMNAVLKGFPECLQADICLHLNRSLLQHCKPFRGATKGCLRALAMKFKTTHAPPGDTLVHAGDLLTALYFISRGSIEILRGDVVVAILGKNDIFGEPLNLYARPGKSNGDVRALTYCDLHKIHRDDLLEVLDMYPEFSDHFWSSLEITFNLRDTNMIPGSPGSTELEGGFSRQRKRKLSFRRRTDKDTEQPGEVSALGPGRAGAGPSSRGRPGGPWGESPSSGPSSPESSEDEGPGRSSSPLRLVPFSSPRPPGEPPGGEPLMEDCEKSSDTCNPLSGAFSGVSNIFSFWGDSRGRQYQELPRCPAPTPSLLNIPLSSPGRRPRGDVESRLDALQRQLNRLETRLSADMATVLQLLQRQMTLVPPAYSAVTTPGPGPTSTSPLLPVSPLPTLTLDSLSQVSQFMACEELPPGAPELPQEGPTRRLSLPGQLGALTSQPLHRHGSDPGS

In the case of CN(C)C(=O)c1nccc(Nc2c(NC3CCCCC3)c(=O)c2=O)c1O, the logD [1] is reported as 0.86.
In the case of C[C@H]1OCCC[C@@]1(C)Nc1c(Nc2ccnc(C(=O)N(C)C)c2O)c(=O)c1=O, the “CL(app)” value [2] is reported as 3.4 µL/min.
In the case of C[C@H]1CCCC[C@H]1Nc1c(Nc2ccnc(C(=O)N(C)C)c2O)c(=O)c1=O, the “CL(app)” value [2] is reported as 6.8 µL/min.
With C[C@@H]1CCCC[C@@H]1Nc1c(Nc2ccnc(C(=O)N(C)C)c2O)c(=O)c1=O the “CL(app)” value [2] was 4.7 µL/min.
For C[C@@H]1CCC[C@H](C)[C@@H]1Nc1c(Nc2ccnc(C(=O)N(C)C)c2O)c(=O)c1=O, the “CL(app)” value [2] was 6.9 µL/min.
In the case of C[C@@H]1OCCC[C@]1(C)Nc1c(Nc2ccnc(C(=O)N(C)C)c2O)c(=O)c1=O, the “CL(app)” value [2] is reported as 2.9 µL/min, the inhibition at 3 µM (CYP (isoform not stated)) is reported as less than 5% and the IC50 [3] is reported as greater than 100 µM.
For C[C@@H]1CCCC[C@]1(C)Nc1c(Nc2ccnc(C(=O)N(C)C)c2O)c(=O)c1=O, the “CL(app)” value [2] was 9.9 µL/min.
In the case of C[C@H]1CCCC[C@@]1(C)Nc1c(Nc2ccnc(C(=O)N(C)C)c2O)c(=O)c1=O, the “CL(app)” value [2] is reported as 8.3 µL/min.
